Results as given in patent US4232007A, “Oral antilipemic agents” (Taiho Pharmaceutical Company Ltd., priority 1975, dated 1980).

What was measured:
plasma = test: Recalcification test; format: biochemical, rat; details: 58 sec. at 0 μg
Protocol: A 0.5 ml quantity of 0.1 M sodium citrate is added to 4.5 ml of blood of rat to obtain plasma. […] Thereafter 0.1 ml of 0.025 M CaCl2 saline solution is added to coagulate the blood sample.

lipids in blood [1] = details: known drugs, background; cited from earlier work
anticoagulant activity = details: cited from earlier work
lipids in blood [2] = test: Reduction of lipids in blood of rats given surfactant Triton WR-1339, oral administration; format: in vivo, rat; details: rats given Triton WR-1339 200 mg/kg i.v., compound 50 mg/kg oral; for Free cholesterol: normal rat 25.7 ± 3.7, rat given surfactant 114.2 ± 28.8; for β-Lipoprotein: normal rat 44.3 ± 1.3, rat given surfactant 141.7 ± 28.8; for Triglyceride: normal rat 44.7 ± 3.5, rat given surfactant 780.1 ± 354.5; for Total cholesterol: normal rat 89.9 ± 10.4, rat given surfactant 235.3 ± 41.7; for Total lipid: normal rat 220 ± 12, rat given surfactant 1033 ± 330
Protocol: A 100 g quantity of the methyl ester of polyglutamic acid (average molecular weight: 100,000) is dissolved in dichloroethane to a concentration of 10 wt.%. To the solution is added a mixture of 70 ml of 2 N sodium hydroxide solution, 140 ml of methanol and 140 ml of isopropanol,and the resulting mixture is stirred at room temperature for about 8 hours to effect demethylation. The product is then passed through a molecular sieve (Sephadex G-200) for the classification of molecular weight to separate a portion ranging from 80,000 to 100,000 in molecular weight (average molecular weight: 90,000). The separated portion is concentrated under reduced pressure and divided into two portions of equivalent weight. To one of the portions is added methanol and the precipitate formed is separated by filtration and dried to obtain the sodium salt of polyglutamic acid. To the other portion is added concentrated hydrochloric acid until the pH thereof reaches 4, then the solution is cooled with ice, whereby a precipitate is formed. The precipitate is separated by filtration, washed with diluted hydrochloric acid, thereafter with methanol and dried to obtain polyglutamic acid. Each powder (200 mg) of polyglutamic acid and sodium salt thereof thus obtained is mixed with 290 mg of milk sugar, 500 mg of corn starch and 10 mg of hydroxypropyl cellulose and the mixtures obtained are granulated respectively. The granules are suspended in water. Two kinds of the suspensions are orally administered to 7 rats in a dose of 50 mg/kg, respectively, to determine the reduction of lipids in blood.
The separated portion is concentrated under reduced pressure, methanol is added to the concentrate and the resulting precipitate is filtered off and dried to obtain the sodium salt of the copolymer of glutamic acid and aspartic acid. With the powder (200 mg) thus obtained are mixed 290 mg of milk sugar, 500 mg of corn starch and 10 mg of hydroxypropyl cellulose. The mixture is granulated and the granules are suspended in an isotonic sodium chloride solution.

Rat = test: Acute toxicity test; format: in vivo; details: for LD50: 72 hours after administration
[3] = amount 100 μg, ditto mark = No coagulation

Substance | Coagulation time (plasma; amount 0.1 μg) | Coagulation time (plasma; amount 0.3 μg) | Coagulation time (plasma; amount 0.5 μg) | Coagulation time (plasma; amount 1 μg) | Coagulation time (plasma; amount 10 μg) | Coagulation time (plasma; [3]) | reducing lipids in blood (lipids in blood [1]) | anticoagulant activity as a side effect (anticoagulant activity) | Free cholesterol (lipids in blood [2]) | β-Lipoprotein (lipids in blood [2]) | Triglyceride (lipids in blood [2]) | Total cholesterol (lipids in blood [2]) | Total lipid (lipids in blood [2]) | toxicity compared with heparin (Rat; Table 2) | LD50 (Rat; intravenous) | LD50 (Rat; oral) | Coagulation time (plasma; amount 500 μg, ditto mark = No coagulation) | Coagulation time (plasma; amount 1000 μg, ditto mark = No coagulation) | Coagulation time (plasma; amount 2000 μg, ditto mark = No coagulation)
dextran sulfate | 57 s | 62 s | 61 s | 117 s | 172 s | No coagulation | effective in reducing lipids in blood | very high anticoagulant activity | – | – | – | – | – | – | – | – | – | – | –
polyglutamic acid | 55 s | 58 s | 56 s | 62 s | 58 s | 62 s | – | – | 38.8 ± 11.7 mg/dl of plasma | 61.9 ± 29.0 mg/dl of plasma | 103.3 ± 67.2 mg/dl of plasma | 118.1 ± 35.3 mg/dl of plasma | 373 ± 132 mg/dl of plasma | much lower toxicity than heparin | 2050 mg/kg | 6000 mg/kg | 100 s | 151 s | 250 s
sodium salt of polyglutamic acid | – | – | – | – | – | – | – | – | 40.0 ± 11.4 mg/dl of plasma | 63.4 ± 16.9 mg/dl of plasma | 92.0 ± 42.8 mg/dl of plasma | 121.8 ± 18.9 mg/dl of plasma | 393 ± 66 mg/dl of plasma | – | – | – | – | – | –
heparin | 62 s | 145 s | 168 s | 285 s | No coagulation | – | effective in reducing lipids in blood | very high anticoagulant activity | – | – | – | – | – | – | 730 mg/kg | 1950 mg/kg | – | – | –
